The record followed here is US20080145313A1, “Compositions and Methods for the Treatment and Prevention of Neoplastic Disorders” (Genesis Research & Development Corporation Limited, priority 2006, published 2008).

Read-outs that look alike come from different tables or passages of the source.

Data set [1] concerns A549 cells. Put plainly: 5FU toxicity in A549 cells after TYMS or DHFR knockdown, SYBR Green. In kind it is cell-based, human. The note with it: 5FU continuous for 3 days, read-out: IC50 value of 5FU following TYMS knockdown, A549. As to the method:
(§1) HCT-116 and A549 cells were transfected as described above with 0.1, 1.0 and 10 nM of three TYMS-specific siRNAs, labeled TYMS-1, TYMS-2 and TYM-3 (SEQ ID NO: 4833-4835 (DNA), and SEQ ID NO: 5139-5141 (RNA), or 1.0 and 10 nM control siRNAs (809-ctrl; SEQ ID NO: 4805 (DNA), and SEQ ID NO: 5302 (RNA) and 81ctrl; SEQ ID NO: 4804 (DNA), and SEQ ID NO: 5301 (RNA)). HCT-116 and A549 cells were also similarly transfected with 0.1, 1.0 and 10 nM of three DHFR-specific siRNAs, labeled DHFR-1, DHFR-2 and DHFR-3 (SEQ ID NO: 4836-4838 (DNA), and SEQ ID NO: 5142-5144 (RNA)), or control siRNA (SEQ ID NO: 4805 (DNA), and SEQ ID NO: 5302 (RNA)). Twenty four hours after transfection, cells were exposed to 5FU using a serial dilution starting at 44 μM, in medium containing either 10% normal FCS or 10% dialyzed FCS as described above. 5FU treatment was continuous for 3 days, at which time cell growth was analyzed by measuring DNA content per well using the SYBR Green assay outlined above. […] This combinatorial inhibitory effect was further increased when experiments were done in medium containing dialyzed FCS (FIGS. 27D-F; FIGS. 28D-F).
(§2) FIGS. 29 and 30 show transfection with DHFR siRNA similarly led to a dose-dependent increase in growth inhibition above that caused by the drug alone (control siRNA-transfected cells) in HCT-116 cells (FIGS. 29A-C), and A549 cells (FIGS. 30A-C). This combinatorial inhibitory effect was further increased when experiments were done in medium containing dialyzed FCS (FIGS. 29D-F; FIGS. 30D-F). The changes in the IC50 value for 5FU in HCT-116 and A549 cells following TYMS knockdown by individual siRNAs are listed in Table 16 below.

Data set [2] concerns A549 cells. The data set is described as follows: Growth inhibition of siRNA-transfected A549 cells, SYBR Green I DNA content. In kind it is cell-based, human. The following applies: 10 nM siRNA; for Growth Inhibition in A549 cells: DNA content 96 hours after transfection. The gist of the method:
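A549 cells reverse-transfected with 10 nM Stealth siRNAs via Lipofectamine RNAiMAX, seeded at 5×10^3 cells/cm^2 in RPMI 1640/10% FCS; non-specific siRNA control. DNA content read 96 h post-transfection by SYBR Green I fluorescence (ex 485/em 535 nm) after freeze-thaw and Triton X-100 lysis; mean of three wells.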

The next data set relates to HCT-116 cells. Put plainly: 5FU toxicity in HCT-116 cells after TYMS or DHFR knockdown, SYBR Green. In kind it is cell-based. The following applies: 5FU continuous for 3 days, read-out: IC50 value of 5FU following TYMS knockdown, HCT-116. On the procedure:
as §1, §2

The next data set deals with SK-Mel-5 cells. Put plainly: Growth inhibition of siRNA-transfected SK-Mel-5 cells, SYBR Green I DNA content. Format: cell-based, human. The following applies: 10 nM siRNA; standardized against control siRNA. As to the method:
A549 cells (human lung cancer cell line; ATCC No. CCL-185), SK-MeI-5 cells (human melanoma cell line; ATCC No. HTB-70), MCF-7 cells (human adenocarcinoma cell line; ATCC No. HTB-22), HCT-116 cells (colorectal carcinoma; ATCC CCL-247) and HCT-116 p53 null cells (derived from ATCC No. CCL-247; Bunz et al., Science 282:1497-1501, 1998) were cultured in RPMI 1640 medium with 10% v/v heat-inactivated fetal calf serum (FCS). Cells were seeded at a density of 5×10^4 cells/cm^2 in multi-well tissue culture plates. Sequences of Stealth™ siRNA duplexes (Invitrogen) targeting human ribonucleotide reductase subunit 1 (SEQ ID NO: 22) and subunit 2 (SEQ ID NO; 38) are given in SEQ ID NO: 4830-4832 (DNA), and SEQ ID NO: 5136-5138 (RNA) for RRM1, and SEQ ID NO: 5306-5308 (DNA), and SEQ ID NO: 5303-5305 (RNA) for RRM2. siRNAs were transfected at different concentrations into cells using Lipofectamine™ RNAiMAX transfection reagent (Invitrogen). Non-specific siRNA (SEQ ID NO: 4804 and 4805 (DNA), and SEQ ID NO: 5301 and 5302 (RNA)) were used as controls. The cellular DNA content was measured using a SYBR Green I-based fluorometric assay at 24, 48, 72 and 96 hours after transfection (120 hours for the MCF-7 cells), as follows. At the indicated time points following reverse transfection, cells were harvested and frozen at −80° C. overnight. Cells were thawed and cell lysis buffer (phosphate-buffered saline (PBS) containing 1% Triton X-100, pH 7) and SYBR Green I (1:10^5 V/V; Invitrogen) was added to the wells and incubated overnight in the dark at 4° C.
The following day, cell lysates were mixed thoroughly, and DNA fluorescence was measured with a Wallac Victor^2 plate reader (Turku, Finland) set at an excitation frequency of 485 nm and measuring emission at 535 nm.
siRNA-mediated inhibition of cancer cell growth using siRNA targeting the YBX1 gene (SEQ ID NO: 92) was determined as follows. SK-MeI-5 cells were cultured in RPMI 1640 medium with 10% v/v heat-inactivated fetal calf serum. Cells were cultured as described above and reverse transfected with 0.1, 1.0, 10 and 40 nM (final concentration) of a pool of YBX1-targeting siRNAs (SEQ ID NO: 4982 and 4983 (DNA), and SEQ ID NO: 5277 and 5278 (RNA); referred to as 994 and 995 in FIG. 19) or a non-specific control (SEQ ID NO: 4804 (DNA), and SEQ ID NO: 5301 (RNA); referred to as Stealth 81 ctrl in FIG. 19), and cell growth determined after 120 h by measuring DNA fluorescence with a Wallac Victor^2 plate reader (Turku, Finland) set at an excitation frequency of 485 nm and measuring emission at 535 nm. Growth inhibition by the siRNA pool was standardized against the inhibition obtained with the control siRNAs.
siRNA-mediated RNAi was also determined on a panel of different cell lines. A549, SK-MeI-5, wt HCT-116, HCT-116−/−p53 and MCF-7 cells were transfected with 10 nM siRNAs targeting YBX-1 and growth inhibition determined as described above. The YBX1 siRNAs are given in SEQ ID NO: 4981 to 4985 (DNA) and SEQ ID NO: 5276-5280 (RNA). A non-specific siRNA (SEQ ID NO: 4804 (DNA) and SEQ ID NO: 5301 (RNA)) was used as control. Growth inhibition by the siRNAs, given in Table 14, was standardized against the inhibition obtained with the control siRNA.

Another data set concerns YBX1 mRNA. Put plainly: YBX1 mRNA level by quantitative RT-PCR in A549 cells. In kind it is cell-based, human. The note with it: 10 nM siRNA; 24 h post-transfection. As to the method: A549 cells were transfected with 10 nM RRM1-1 (SEQ ID NO: 4830 (DNA), and SEQ ID NO: 5136 (RNA); light grey bar in FIG. 12A), RRM1-2 (SEQ ID NO: 4831 (DNA), and SEQ ID NO: 5137 (RNA); dark grey bar in FIG. 12A), RRM1-3 (SEQ ID NO: 4832 (DNA), and SEQ ID NO: 5138 (RNA); black bar in FIG. 12A) or control siRNA (SEQ ID NO: 4804 (DNA), and SEQ ID NO: 5301 (RNA)) (open bar in FIG. 12A) and relative mRNA levels quantified 24 h post-transfection. RNA was purified from cells using Trizol® extraction as per the manufacturer's protocol (Invitrogen). cDNA was prepared by digesting approximately 200 ng purified RNA with DNAse I (Invitrogen) for 15 minutes at room temperature, followed by 15 minutes at 65° C. in the presence of 25 mM EDTA. 30 ng random primers were added and incubated for 10 minutes at room temperature, 1 minute on ice; Superscript III polymerase (Invitrogen) was added in presence of 5 nM DTT (Sigma, St Louis, Mo.) and 1 mM deoxyribonucleotides (Invitrogen), and the reaction incubated at 25° C. for 5 minutes, followed by an hour at 55° C. cDNA was diluted 1:3 in 10 mM Tris pH 7.0, and quantitative RT-PCR carried out on an ABI Prism 7900HT (Applied Biosciences, Inc., Foster City, Calif.) using FastStart TaqMan SYBRGreen (Roche, Basel, Switzerland) and specific primers at 360 nM for RRM1 and RRM2 and the housekeeping genes HPRT and Lamin. Primer sequence pairs used for RRM1, RRM2, HPRT and lamin are given in SEQ ID NO: 4881 and 4882; 4883 and 4884; 4885 and 4886; 4887 and 4888 respectively.
A549 cells were transfected with 0.1, 1.0 and 10 nM siRNA (given in SEQ ID NO: 4981 to 4985 (DNA), and SEQ ID NO: 5276-5280 (RNA)) and the relative mRNA levels quantified 24 h post-transfection as described in Example 8.

[3] abbreviates: cells transfected with 0.1 nM siRNA.
The mark [4] stands for this setting: cells transfected with 1 nM siRNA.
Where [5] appears, read: cells transfected with 10 nM siRNA.

Broadly, the IC50 is the concentration that inhibits the measured activity by half. On to “SEQ ID NO: 4835: siRNA targeting TYMS (chain 1 ATTCAGGTAAATATGTGCATCTCCC; chain 2 AUUCAGGUAAAUAUGUGCAUCUCCC; chemistry not given here; one strand in two spellings)”, for which the concentration for half-maximal inhibition (IC50) in the data set with A549 cells [1] (setting [3]) amounted to 0.61 µM; with A549 cells [1] (setting [4]), 0.13 µM; in the data set with A549 cells [1] (setting [5]) it was 0.2 µM; with HCT-116 cells (setting [3]), 0.32 µM; in the data set with HCT-116 cells (setting [4]), 0.19 µM; with HCT-116 cells (setting [5]), 0.11 µM. Moreover, the “Growth Inhibition in A549 cells” value in the data set on A549 cells [2] is “++ (inhibits by at least 75%)”.
As for “SEQ ID NO: 4981: siRNA targeting YBX1 (chain 1 TGGATAGCGTCTATAATGGTTACGG; chain 2 UGGAUAGCGUCUAUAAUGGUUACGG; chemistry not given here; one strand in two spellings)”, the “growth inhibition, A549 cells” value in the data set on A549 cells [2] (standardized against control siRNA) is reported as “+ (At least 20% inhibition)”. Further, the “growth inhibition, SK-Mel-5 cells” value with SK-Mel-5 cells is “++ (At least 50% inhibition)”. For the same substance, the “YBX1-specific reduction of mRNA levels in A549 cells” value in the data set on YBX1 mRNA is on record as “++ (At least 50% inhibition)”.
For “SEQ ID NO: 4834: siRNA targeting TYMS (chain 1 TGTGGATCCCTTGATAAACCACAGC; chain 2 UGUGGAUCCCUUGAUAAACCACAGC; chemistry not given here; one strand in two spellings)”, the IC50 was found to be 0.59 µM in the data set on A549 cells [1] (setting [3]); 0.21 µM with A549 cells [1] (setting [4]); 0.15 µM in the data set with A549 cells [1] (setting [5]); 0.41 µM in the data set with HCT-116 cells (setting [3]); 0.1 µM with HCT-116 cells (setting [5]). The “Growth Inhibition in A549 cells” value in the data set on A549 cells [2] is listed as “++ (inhibits by at least 75%)”.
With “SEQ ID NO: 4805: non-specific control siRNA (chain 1 GGGAAATGTCTCCTCCCATTGATTT; chain 2 GGGAAAUGUCUCCUCCCAUUGAUUU; chemistry not given here; one strand in two spellings) [reference compound]”, the IC50 in the data set on A549 cells [1] (setting [3]) turned out to be 0.82 µM; in the data set with A549 cells [1] (setting [4]), 0.67 µM; in the data set with A549 cells [1] (setting [5]) it was 0.64 µM; in the data set with HCT-116 cells (setting [3]) it was 0.65 µM; with HCT-116 cells (setting [4]) it was 0.6 µM; with HCT-116 cells (setting [5]) it was 0.6 µM.
